From patent publication EP2951180B1, “2,6,7,8 SUBSTITUTED PURINES AS HDM2 INHIBITORS” (Merck Sharp & Dohme Corp., priority 2013, dated 2014)
pIC50: −log10 of the molar value. Like-named read-outs stand apart in the source and are kept apart here.

Target: T1, HDM2 (Homo sapiens, UniProt Q00987)
T1 construct: Thioredoxin (N); made in house; host or cells: E. coli strain BL21(DE3)Rosetta
Experiment: HDM2 FRET assay (inhibition of binding of FITC labeled p53-pocket peptide to HDM2)
Details: read-out: FRET IC50
Method in brief: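 Displacement of FITC-p53 peptide (3 nM) from His-tagged HDM2 (0.5 nM) is measured by Tb-to-fluorescein FRET in PBS, 0.01% BSA, 0.01% Tween-20. IC50 values derive from 10-point curves.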

[1] = 0.5 nM HDM2 (residues 17 to 125), 3nM peptide, two hour incubation at room temperature

T1 sequence (Q00987 17-125): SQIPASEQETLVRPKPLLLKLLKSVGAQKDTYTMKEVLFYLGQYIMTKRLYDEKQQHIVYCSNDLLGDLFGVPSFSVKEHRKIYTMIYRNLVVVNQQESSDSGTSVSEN

C[C@H]1CC[C@H](Cn2c(N3CCOC[C@H]3c3ccc(F)cc3)nc3nc(-c4noc(=O)[nH]4)nc(-c4cncc(Cl)c4)c32)CC1 [Example 16.93, 3-{6-(5-chloropyridin-3-yl)-8-[(3R)-3-(4-fluorophenyl)morpholin-4-yl]-7-[(trans-4-methylcyclohexyl)methyl]-7H-purin-2-yl}-1,2,4-oxadiazol-5(4H)-one]
pIC50 [1]: 8.86

C[C@@H](Nc1nc(-c2noc(=O)[nH]2)nc2nc(N(C)Cc3cnn(C)c3)n(C[C@H]3CC[C@H](C)CC3)c12)C1CCC1 [Example 11.71, 3-(6-{[(1R)-1-cyclobutylethyl]amino}-7-[(trans-4-methylcyclohexyl)methyl]-8-{methyl[(1-methyl-1H-pyrazol-4-yl)methyl]amino}-7H-purin-2-yl)-1,2,4-oxadiazol-5(2H)-one]
pIC50 (Table 11): 7.61

CCN(C)c1nc2nc(-c3noc(=O)[nH]3)nc(N[C@H](C)C3CCC3)c2n1C[C@H]1CC[C@H](C)CC1 [Example 11.115, 3-(6-{[(1R)-1-cyclobutylethyl]amino}-8-[ethyl(methyl)amino]-7-[(trans-4-methylcyclohexyl)methyl]-7H-purin-2-yl)-1,2,4-oxadiazol-5(2H)-one]
pIC50 (Table 11): 8.09

C[C@@H](Nc1nc(-c2noc(=O)[nH]2)nc2nc(N(C)[C@@H]3CCCC[C@@H]3O)n(C[C@H]3CC[C@H](C)CC3)c12)C1CCC1 (stereo in doubt) [Example 11.132, 3-(6-{[(1R)-1-cyclobutylethyl]amino}-8-{[(1R,2S)-2-hydroxycyclohexyl](methyl)amino}-7-[(trans-4-methylcyclohexyl)methyl]-7H-purin-2-yl)-1,2,4-oxadiazol-5(4H)-one]
pIC50 (Table 11): 7.59

C[C@@H](Nc1nc(C(=O)O)nc2nc(C(=O)NC3CCCCC3)n(Cc3ccc(C(F)(F)F)cc3)c12)C1CCC1 [Example 10.19, (R)-6-((1-Cyclobutylethyl)amino)-8-(cyclohexylcarbamoyl)-7-(4-(trifluoromethyl)benzyl)-7H-purine-2-carboxylic acid]
pIC50 (Table 10): 7.17

C[C@@H](Nc1nc(C(=O)O)nc2nc(N[C@H](CO)c3ccccc3)n(Cc3ccc(C(F)(F)F)cc3)c12)C1CCC1 [Example 9.8, 6-{[(1R)-1-cyclobutylethyl]amino}-8-{[(1S)-2-hydroxy-1-phenylethyl]amino}-7-[4-(trifluoromethyl)benzyl]-7H-purine-2-carboxylic acid]
pIC50 (Table 9): 7.82

CCCC1CCCN1c1nc2nc(-c3noc(=O)[nH]3)nc(N[C@H](C)C3CCC3)c2n1C[C@H]1CC[C@H](C)CC1 (stereo partly drawn) [Example 11.35, 3-[6-{[(1R)-1-cyclobutylethyl]amino}-7-[(trans-4-methylcyclohexyl)methyl]-8-(2-propylpyrrolidin-1-yl)-7H-purin-2-yl]-1,2,4-oxadiazol-5(2H)-one]
pIC50 (Table 11): 8.36

C[C@@H](Nc1nc(-c2nnnn2C)nc2nc(N3CCOC[C@H]3c3ccccc3)n(C[C@H]3CC[C@H](C)CC3)c12)C1CCC1 [Example 12.12, N-[(1R)-1-cyclobutylethyl]-7-[(trans-4-methylcyclohexyl)methyl]-2-(1-methyl-1H-tetrazol-5-yl)-8-[(3R)-3-phenylmorpholin-4-yl]-7H-purin-6-amine]
pIC50 [1]: 7.56

Cc1cccc(-c2nc3nc(C(=O)O)nc(N[C@H](C)c4ccccc4)c3n2Cc2ccc(C(F)(F)F)cc2)c1 [Example 6.30, 8-(3-methylphenyl)-6-{[(1R)-1-phenylethyl]amino}-7-[4-(trifluoromethyl)benzyl]-7H-purine-2-carboxylic acid]
pIC50 (Table 6): 5.83

C[C@H]1CC[C@H](Cn2c(N3CCOC[C@H]3c3ccccc3)nc3nc(-c4noc(=O)[nH]4)nc(-c4ccc(F)c(Cl)c4)c32)CC1 [Example 16.24, 3-{6-(3-chloro-4-fluorophenyl)-7-[(trans-4-methylcyclohexyl)methyl]-8-[(3R)-3-phenylmorpholin-4-yl]-7H-purin-2-yl}-1,2,4-oxadiazol-5(4H)-one]
pIC50 [1]: 8.25

C[C@H](Nc1nc2nc(-c3noc(=O)[nH]3)nc(-c3cccc(Cl)c3)c2n1C[C@H]1CC[C@H](C)CC1)c1cccc(F)c1 [Example 16.49, 3-{6-(3-chlorophenyl)-8-{[(1S)-1-(3-fluorophenyl)ethyl]amino}-7-[(trans-4-methylcyclohexyl)methyl]-7H-purin-2-yl}-1,2,4-oxadiazol-5(4H)-one]
pIC50 [1]: 8.79

CN(C)C(=O)[C@@H]1CCCN1c1nc2nc(-c3noc(=O)[nH]3)nc(-c3cccc(Cl)c3)c2n1C[C@H]1CC[C@H](C)CC1 [Example 16.148, 1-[6-(3-chlorophenyl)-7-[(trans-4-methylcyclohexyl)methyl]-2-(5-oxo-4,5-dihydro-1,2,4-oxadiazol-3-yl)-7H-purin-8-yl]-N,N-dimethyl-L-prolinamide]
pIC50 [1]: 7.82

C=C(c1nc2nc(-c3noc(=O)[nH]3)nc(N[C@H](C)C3CCC3)c2n1C[C@H]1CC[C@H](C)CC1)C1CCCCC1 [Example 21.19, 3-(6-{[(1R)-1-cyclobutylethyl]amino}-8-(1-cyclohexylethenyl)-7-[(trans-4-methylcyclohexyl)methyl]-7H-purin-2-yl)-1,2,4-oxadiazol-5(4H)-one]
pIC50 (Table 21): 9.03

CC(C)C[C@H]1COCCN1c1nc2nc(-c3noc(=O)[nH]3)nc(-c3cccc(Cl)c3)c2n1C[C@H]1CC[C@H](C)CC1 [Example 16.39, 3-{6-(3-chlorophenyl)-7-[(trans-4-methylcyclohexyl)methyl]-8-[(3S)-3-(2-methylpropyl)morpholin-4-yl]-7H-purin-2-yl}-1,2,4-oxadiazol-5(4H)-one]
pIC50 [1]: 7.32

C[C@H]1CC[C@H](Cn2c(N3CCC[C@H]3C(F)(F)F)nc3nc(-c4noc(=O)[nH]4)nc(-c4cncc(Cl)c4)c32)CC1 [Example 16.74, 3-{6-(5-chloropyridin-3-yl)-7-[(trans-4-methylcyclohexyl)methyl]-8-[(2S)-2-(trifluoromethyl)pyrrolidin-1-yl]-7H-purin-2-yl}-1,2,4-oxadiazol-5(4H)-one]
pIC50 [1]: 9.23

C[C@H]1CC[C@H](Cn2c(N3CCOC[C@H]3c3ccccc3)nc3nc(-c4n[nH]c(=O)o4)nc(Oc4ccc(Cl)cn4)c32)CC1 [Example 25.3, 5-{6-[(5-chloropyridin-2-yl)oxy]-7-[(trans-4-methylcyclohexyl)methyl]-8-[(3R)-3-phenylmorpholin-4-yl]-7H-purin-2-yl}-1,3,4-oxadiazol-2(3H)-one]
pIC50 (Table 25): 7.70

C[C@@H]1OC(=O)N(c2nc3nc(-c4noc(=O)[nH]4)nc(-c4cccc(Cl)c4)c3n2C[C@H]2CC[C@H](C)CC2)[C@@H]1c1ccccc1 [Example 16.9, 3-(6-(3-chlorophenyl)-8-((4R,5S)-5-methyl-2-oxo-4-phenyloxazolidin-3-yl)-7-(((trans)-4-methylcyclohexyl)methyl)-7H-purin-2-yl)-1,2,4-oxadiazol-5(4H)-one]
pIC50 [1]: 8.52

CC(=O)c1nc(N[C@H](C)C2CCC2)c2c(n1)nc(N1CCOC[C@H]1c1ccccc1)n2C[C@H]1CC[C@H](C)CC1 [Example 12.21, 1-(6-{[(1R)-1-cyclobutylethyl]amino}-7-[(trans-4-methylcyclohexyl)methyl]-8-[(3R)-3-phenylmorpholin-4-yl]-7H-purin-2-yl)ethanone]
pIC50 [1]: 7.27

C[C@@H](Nc1nc(-c2noc(=O)[nH]2)nc2nc(N3CCC[C@H]4CCCC[C@@H]43)n(C[C@H]3CC[C@H](C)CC3)c12)C1CCC1 [Example 11.60, 3-(6-{[(1R)-1-cyclobutylethyl]amino}-7-[(trans-4-methylcyclohexyl)methyl]-8-[(4aR,8aS)-octahydroquinolin-1(2H)-yl]-7H-purin-2-yl)-1,2,4-oxadiazol-5(4H)-one]
pIC50 (Table 11): 7.98

CC(CN1CCCC1)CN(C)c1nc2nc(-c3noc(=O)[nH]3)nc(N[C@H](C)C3CCC3)c2n1Cc1ccc(C(F)(F)F)cc1 (stereo partly drawn) [Example 9.104, 3-(6-{[(1R)-1-cyclobutylethyl]amino}-8-[methyl(2-methyl-3-pyrrolidin-1-ylpropyl)amino]-7-[4-(trifluoromethyl)benzyl]-7H-purin-2-yl)-1,2,4-oxadiazol-5(4H)-one]
pIC50 (Table 9): 7.20

C[C@H]1CC[C@H](Cn2c(C3CC3)nc3nc(-c4noc(=O)[nH]4)nc(-c4cccc(Cl)c4)c32)CC1 [Example 24.2, 3-{6-(3-chlorophenyl)-8-cyclopropyl-7-[(trans-4-methylcyclohexyl)methyl]-7H-purin-2-yl}-1,2,4-oxadiazol-5(4H)-one]
pIC50 [1]: 7.38

CCC(c1ccccc1)N(C)c1nc2nc(-c3noc(=O)[nH]3)nc(N[C@H](C)C3CCC3)c2n1Cc1ccc(C(F)(F)F)c(F)c1 (stereo partly drawn) [Example 9.71, 3-(6-{[(1R)-1-cyclobutylethyl]amino}-7-[3-fluoro-4-(trifluoromethyl)benzyl]-8-[methyl(1-phenylpropyl)amino]-7H-purin-2-yl)-1,2,4-oxadiazol-5(4H)-one]
pIC50 (Table 9): 7.74

C[C@@H](Nc1nc(-c2noc(=O)[nH]2)nc2nc(C3CCC3)n(C[C@H]3CC[C@H](C)CC3)c12)C1CCC1 [Example 22.70, 3-(8-cyclobutyl-6-{[(1R)-1-cyclobutylethyl]amino}-7-[(trans-4-methylcyclohexyl)methyl]-7H-purin-2-yl)-1,2,4-oxadiazol-5(4H)-one]
pIC50 (Table 22): 7.82

Cc1cccc(-c2nc3nc(C(=O)O)nc(NC(C4CC4)C4CC4)c3n2Cc2ccc(C(F)(F)F)cc2)c1 [Example 6.24, 6-[(dicyclopropylmethyl)amino]-8-(3-methylphenyl)-7-[4-(trifluoromethyl)benzyl]-7H-purine-2-carboxylic acid]
pIC50 (Table 6): 6.48

C[C@@H](Nc1nc(-c2noc(=O)[nH]2)nc2nc(N3CCOCC3c3ccc(Cl)cc3)n(C[C@H]3CC[C@H](C)CC3)c12)C1CCC1 (stereo partly drawn) [Example 11.119, 3-{8-[3-(4-chlorophenyl)morpholin-4-yl]-6-{[(1R)-1-cyclobutylethyl]amino}-7-[(trans-4-methylcyclohexyl)methyl]-7H-purin-2-yl}-1,2,4-oxadiazol-5(4H)-one]
pIC50 (Table 11): 7.61
